What was measured:
[1] = Biodistribution in male ICR mouse bone at 0.74 MBq, iv administered into tail vein measured at 60 mins post-injection by automatic gamma counter analysis; format: ADME, organism-based, Bone element; conditions: in vivo, 1 h
[2] = Biodistribution in male ICR mouse spleen at 0.74 MBq, iv administered into tail vein pre-treated with WL8 followed by compound addition by automatic gamma counter analysis relative to baseline; format: ADME, organism-based; conditions: in vivo
[3] = Biodistribution in male ICR mouse bone at 0.74 MBq, iv administered into tail vein measured at 10 mins post-injection by automatic gamma counter analysis; format: ADME, organism-based, Bone element; conditions: in vivo
[4] = Biodistribution in male ICR mouse blood at 0.74 MBq, iv administered into tail vein measured at 10 mins post-injection by automatic gamma counter analysis; format: ADME, organism-based; conditions: in vivo
[5] = Biodistribution in male ICR mouse lungs at 0.74 MBq, iv administered into tail vein measured at 60 mins post-injection by automatic gamma counter analysis; format: ADME, organism-based, Lung; conditions: in vivo, 1 h
[6] = Biodistribution in male ICR mouse stomach at 0.74 MBq, iv administered into tail vein pre-treated with GSK'547 followed by compound addition by automatic gamma counter analysis relative to baseline; format: ADME, organism-based; conditions: in vivo
[7] = Biodistribution in male ICR mouse blood at 0.74 MBq, iv administered into tail vein pre-treated with GSK'547 followed by compound addition by automatic gamma counter analysis relative to baseline; format: ADME, organism-based; conditions: in vivo
[8] = Biodistribution in male ICR mouse brain at 0.74 MBq, iv administered into tail vein pre-treated with WL8 followed by compound addition by automatic gamma counter analysis relative to baseline; format: ADME, organism-based; conditions: in vivo
[9] = Biodistribution in male ICR mouse pancreas at 0.74 MBq, iv administered into tail vein by automatic gamma counter analysis; format: ADME, organism-based; conditions: in vivo
[10] = Biodistribution in male ICR mouse liver at 0.74 MBq, iv administered into tail vein pre-treated with WL8 followed by compound addition by automatic gamma counter analysis relative to baseline; format: ADME, organism-based; conditions: in vivo
[11] = Biodistribution in male ICR mouse small intestine at 0.74 MBq, iv administered into tail vein pre-treated with GSK'547 followed by compound addition by automatic gamma counter analysis; format: ADME, organism-based; conditions: in vivo
[12] = Biodistribution in male ICR mouse muscle tissue at 0.74 MBq, iv administered into tail vein pre-treated with WL8 followed by compound addition by automatic gamma counter analysis relative to baseline; format: ADME, organism-based; conditions: in vivo
[13] = Drug uptake in male mouse thalamus at 5 microCi/ml incubated for 30 mins by phosphor imager analysis; format: ADME, tissue-based; conditions: 0.5 h
[14] = Biodistribution in male ICR mouse blood at 0.74 MBq, iv administered into tail vein pre-treated with WL8 followed by compound addition by automatic gamma counter analysis; format: ADME, organism-based; conditions: in vivo
[15] = Biodistribution in male ICR mouse brain at 0.74 MBq, iv administered into tail vein measured at 60 mins post-injection by automatic gamma counter analysis; format: ADME, organism-based; conditions: in vivo, 1 h
[16] = Biodistribution in male ICR mouse blood at 0.74 MBq, iv administered into tail vein measured at 60 mins post-injection by automatic gamma counter analysis; format: ADME, organism-based; conditions: in vivo, 1 h
[17] = Biodistribution in male ICR mouse heart at 0.74 MBq, iv administered into tail vein by automatic gamma counter analysis; format: ADME, organism-based; conditions: in vivo
[18] = Biodistribution in male ICR mouse bone at 0.74 MBq, iv administered into tail vein pre-treated with GSK'547 followed by compound addition by automatic gamma counter analysis relative to baseline; format: ADME, organism-based, Bone element; conditions: in vivo
[19] = Drug uptake in male mouse cerebellum at 5 microCi/ml incubated for 30 mins by phosphor imager analysis; format: ADME, tissue-based; conditions: 0.5 h
[20] = Drug degradation in male mouse liver assessed as parent compound remaining at 26.6 MBq by radio-HPLC analysis; format: ADME, tissue-based
[21] = Biodistribution in male ICR mouse blood at 0.74 MBq, iv administered into tail vein measured at 30 mins post-injection by automatic gamma counter analysis; format: ADME, organism-based; conditions: in vivo, 0.5 h
[22] = Biodistribution in male ICR mouse bone at 0.74 MBq, iv administered into tail vein measured at 2 mins post-injection by automatic gamma counter analysis; format: ADME, organism-based, Bone element; conditions: in vivo
[23] = Biodistribution in male ICR mouse small intestine at 0.74 MBq, iv administered into tail vein pre-treated with WL8 followed by compound addition by automatic gamma counter analysis relative to baseline; format: ADME, organism-based; conditions: in vivo
[24] = Biodistribution in male ICR mouse kidneys at 0.74 MBq, iv administered into tail vein by automatic gamma counter analysis; format: ADME, organism-based, Kidney; conditions: in vivo
[25] = Biodistribution in male ICR mouse pancreas at 0.74 MBq, iv administered into tail vein pre-treated with GSK'547 followed by compound addition by automatic gamma counter analysis relative to baseline; format: ADME, organism-based; conditions: in vivo
[26] = Biodistribution in male ICR mouse brain at 0.74 MBq, iv administered into tail vein pre-treated with GSK'547 followed by compound addition by automatic gamma counter analysis relative to baseline; format: ADME, organism-based; conditions: in vivo
[27] = Biodistribution in male ICR mouse liver at 0.74 MBq, iv administered into tail vein measured at 60 mins post-injection by automatic gamma counter analysis; format: ADME, organism-based; conditions: in vivo, 1 h
[28] = Biodistribution in male ICR mouse brain at 0.74 MBq, iv administered into tail vein measured at 10 mins post-injection by automatic gamma counter analysis; format: ADME, organism-based; conditions: in vivo
[29] = Biodistribution in male ICR mouse liver at 0.74 MBq, iv administered into tail vein pre-treated with GSK'547 followed by compound addition by automatic gamma counter analysis relative to baseline; format: ADME, organism-based; conditions: in vivo
[30] = Biodistribution in male ICR mouse heart at 0.74 MBq, iv administered into tail vein pre-treated with WL8 followed by compound addition by automatic gamma counter analysis relative to baseline; format: ADME, organism-based; conditions: in vivo
[31] = Biodistribution in male ICR mouse kidney at 0.74 MBq, iv administered into tail vein pre-treated with GSK'547 followed by compound addition by automatic gamma counter analysis relative to baseline; format: ADME, organism-based; conditions: in vivo
[32] = Biodistribution in male ICR mouse lung at 0.74 MBq, iv administered into tail vein pre-treated with GSK'547 followed by compound addition by automatic gamma counter analysis relative to baseline; format: ADME, organism-based; conditions: in vivo
[33] = Biodistribution in male ICR mouse blood at 0.74 MBq, iv administered into tail vein pre-treated with GSK'547 followed by compound addition by automatic gamma counter analysis; format: ADME, organism-based; conditions: in vivo

- Drug uptake [1]: 6.69 % ID/g
- Drug uptake [2]: Active
- Drug uptake [3]: 3.6 % ID/g
- Drug uptake [4]: 5.32 % ID/g
- Drug uptake [5]: < 4 % ID/g
- Drug uptake [6]: Active
- Drug uptake [7]: Active
- Drug uptake [8]: Active
- Drug uptake [9]: > 6.5 % ID/g
- Drug uptake [10]: Active
- Drug uptake [11]: > 27%
- Drug uptake [12]: Active
- Drug uptake [13]: Active
- Drug uptake [14]: > 58%
- Drug uptake [15]: 0.14 % ID/g
- Drug uptake [16]: 0.97 % ID/g
- Drug uptake [17]: > 6.5 % ID/g
- Drug uptake [18]: Not_active
- Drug uptake [19]: Active
- Stability [20]: 13.6%
- Drug uptake [21]: 2.55 % ID/g
- Drug uptake [22]: 3.09 % ID/g
- Drug uptake [23]: Not_active
- Drug uptake [24]: > 6.5 % ID/g
- Drug uptake [25]: Active
- Drug uptake [26]: Active
- Drug uptake [27]: < 4 % ID/g
- Drug uptake [28]: 1.34 % ID/g
- Drug uptake [29]: Active
- Drug uptake [30]: Active
- Drug uptake [31]: Active
- Drug uptake [32]: Active
- Drug uptake [33]: > 58%
Compound: Cc1ccc(C2CC=NN2C(=O)C2CCN(C(=O)c3cccc([18F])n3)CC2)cc1F (stereo not drawn)
